Here are results for five compounds from publication PMC6270837, “Preparation and Biological Properties of Ring-Substituted Naphthalene-1-Carboxanilides” (Molecules, 2014).

Entries after “also recorded” stand apart in the source; their conditions may differ. Like-named read-outs stand apart in the source and are kept apart here.

One data set can be described thus: physchem. As to conditions: aqueous buffer, kinetic from dmso stock.
Data set [1] is described as follows: Lipophilicity determination by RP-HPLC (capacity factor, log k). The class given is physicochemical. The following applies: end-capped C18, isocratic MeOH 60%/H2O 40%. The procedure:
Lipophilicity is a property that has a major effect on bioavailability, biotransformation as well as pharmacological activity, because drugs cross biological membranes through passive transport, which strongly depends on their lipophilicity. Lipophilicity of the studied compounds was determined by RP‑HPLC as capacity factor logarithm (log k). The procedure was performed under isocratic conditions with methanol as an organic modifier in the mobile phase using an end-capped non-polar C18 stationary RP column. The results of ring-substituted naphthalene-1-carboxanilides 1–8c are shown in Table 1 and illustrated in Figure 1. […] Lipophilicity was also calculated as log P using ACD/Percepta ver. 2012 (Advanced Chemistry Development, Inc., Toronto, ON, Canada).
A HPLC system Agilent 1200 equipped with DAD detector (Agilent, USA) was used. A chromatographic column Symmetry® C18 5 μm, 4.6 × 250 mm, Part No. WAT054275 (Waters Corp., Milford, MA, USA) was used. The HPLC separation process was monitored and evaluated by EZChrom Elite software ver. 3.3.2 (Agilent, USA). Isocratic elution by a mixture of MeOH p.a. (60%) and H2O-HPLC Mili-Q grade (40%) as a mobile phase was used. The total flow of the column was 1.0 mL/min, injection 20 μL, column temperature 40 °C, and sample temperature 10 °C. The detection wavelength 210 nm was chosen. The KI methanolic solution was used for the dead time (tD) determination. Retention times (tR) were measured in minutes. The capacity factors k were calculated according to formula k = (tR − tD)/tD, where tR is the retention time of the solute, whereas tD denotes the dead time obtained using an unretained analyte. Log k, calculated from the capacity factor k, is used as the lipophilicity index converted to log P scale.

In data set [2] the test system is M. avium subsp. paratuberculosis. The data set can be described thus: MTT assay on mycobacteria. The class given is cell-based, Mycobacterium avium subsp. paratuberculosis. As to conditions: lowest tested concentration 8 µg/mL (ca. 30 µmol/L), four hours of incubation. The procedure:
Additionally, a standard MTT assay was performed on these same compounds. The MTT assay is a well-characterized method of assessing cell growth through measurement of respiration.
For the MTT assay, the same 96-well plate set up and incubation conditions listed above were used. After the incubation period, a 10% addition of MTT reagent was mixed into each well and incubated at 37 °C for 4 h. The reagent and media were then aspirated from the wells to which 50 µL DMSO was then added and plates were read at 550 nm.

For data set [3], the system named is Mycobacterium avium subsp. paratuberculosis CIT03. The data set is described as follows: In vitro antimycobacterial evaluation (MIC/IC90, alamarBlue). The class given is cell-based. As to conditions: for antimycobacterial activity relative to ciprofloxacin / antimycobacterial activity relative to rifampicin: M. avium subsp. paratuberculosis, comparison of MICs; for MIC: Mycobacterium avium. Here is the method: The MIC/IC90 value is routinely and widely used in bacterial assays and is a standard detection limit according to the Clinical and Laboratory Standards Institute.
A well-characterized clinical isolate of Mycobacterium avium subsp. paratuberculosis (CIT03) was grown in Middlebrook broth (MB), supplemented with Oleic-Albumin-Dextrose-Catalase supplement (OADC, Becton, Dickinson and Comp., Franklin Lakes, NJ, USA) and mycobactin J (2 µg/mL). Identification of this isolate was performed using biochemical and molecular protocols. At log phase growth, a culture sample (10 mL) was centrifuged at 15,000 rpm/20 min using a bench top centrifuge (Model CR 4-12, Jouan Inc., Winchester, VA, USA). Following removal of the supernatant, the pellet was washed in fresh Middlebrook 7H9GC broth and re-suspended in fresh supplemented MB (10 mL). The turbidity was adjusted to match McFarland standard No. 1 (3 × 10^8 cfu) with MB broth. A further 1:20 dilution of the culture was then performed in MB broth. The antimicrobial susceptibility of the mycobacterial species was investigated in a 96-well plate format. In these experiments, sterile deionized water (300 µL) was added to all outer-perimeter wells of the plates to minimize evaporation of the medium in the test wells during incubation. Each evaluated compound (100 µL) was incubated with the mycobacterial species (100 µL). Dilutions of each compound were prepared in duplicate. For all synthesized compounds, final concentrations ranged from 1,000 µg/mL to 8 µg/mL. All compounds were prepared in DMSO and subsequent dilutions were made in supplemented MB. The plates were sealed with parafilm and incubated at 37 °C for 11 days.
Following incubation, a 10% addition of alamarBlue (AbD Serotec, Kidlington, UK) was mixed into each well and readings at 570 nm and 600 nm were taken, initially for background subtraction and subsequently after 24 h re-incubation. […] For non-interfering compounds, a blue colour in the well was interpreted as an absence of growth and a pink colour was scored as growth. Furthermore percent reduction of alamarBlue was calculated to generate quantitative data on cell viability during exposure to antimycobacterial compounds over a period of 5 days. The formula used to determine percent reduction of alamarBlue has been standardized for colorimetric analysis by Abd Serotec.
The MIC value is routinely and widely used in bacterial assays and is a standard detection limit according to the Clinical and Laboratory Standards Institute.
Background: Alamar Blue is a resazurin reagent that responds to reducing activity.

Data set [4] has as its system human monocytic leukemia THP-1 cell line. The data set is described as follows: In vitro cytotoxicity assay (LDH). The following applies: for LD50: human, 24 h; for lethal effect / toxicity on THP-1 cells: treatment with 30 μmol/L. The procedure:
Human monocytic leukemia THP-1 cells were obtained from the European Collection of Cell Cultures (ECACC, Salisbury, UK; Methods of characterization: DNA Fingerprinting (Multilocus probes) and isoenzyme analysis). These cells were routinely cultured in RPMI 1640 (Lonza, Verviers, Belgium) medium supplemented with 10% fetal bovine serum (FBS, Sigma-Aldrich, St. Louis, MO, USA), 2% L-glutamine, 1% penicillin and streptomycin (Lonza) at 37 °C with 5% CO2. Cells were passaged at approximately one-week intervals. Cells were routinely tested for the absence of mycoplasma (Hoechst 33258 staining method). The tested compounds were dissolved in DMSO (Sigma-Aldrich) and added in five increasing concentrations to the cell suspension in the culture medium. The maximum concentration of DMSO in the assays never exceeded 0.1%. Subsequently, the cells were incubated for 24 h at 37 °C with 5% CO2 to various compound concentrations ranging from […] in RPMI 1640 medium. Cell toxicity was determined using a Cytotoxicity Detection Kit^PLUS Lactate dehydrogenase (LDH) assay kit (Roche Diagnostics, Mannheim, Germany) according to the manufacturer’s instructions, as described previously. For LDH assays, cells were seeded into 96-well plates (5 × 10^4 cells/well in 100 μL culture medium) in triplicate in serum-free RPMI 1640 medium, and measurements at 492 nm wavelength (Synergy 2 Multi-Mode Microplate Reader, BioTek, Winooski, VT, USA) were taken 24 h after the treatment with tested compounds. The median lethal dose values, LD50, were deduced through the production of a dose-response curve. All data were evaluated using GraphPad Prism 5.00 software (GraphPad Software, San Diego, CA, USA).
LDH Test Principle: The LDH activity is determined by a coupled enzymatic reaction, whereby the tetrazolium salt INT is reduced to formazan. An increase in the amount of dead or plasma membrane damaged cells results in an increase of LDH enzyme activity in the culture supernatant. This increase in the amount of enzyme activity in the supernatant directly correlates to the amount of formazan formed during a limited time period.

Data set [5] relates to photosynthetic electron transport (PET) in isolated spinach chloroplasts. The data set is described as follows: Inhibition of photosynthetic electron transport (PET) in isolated spinach chloroplasts. The class given is biochemical, Spinacia oleracea L. The following applies: DCPIP photoreduction. Here is the method:
The PET-inhibiting activity was expressed by IC50 value, i.e., compound concentration in mol/L causing 50% inhibition of PET.
Chloroplasts were prepared from spinach (Spinacia oleracea L.) according to Masarovicova and Kralova. The inhibition of photosynthetic electron transport (PET) in isolated spinach chloroplasts was determined spectrophotometrically (Genesys 6, Thermo Scientific, USA), using an artificial electron acceptor 2,6-dichlorophenol-indophenol (DCIPP) according to Kralova et al., and the rate of photosynthetic electron transport was monitored as a photoreduction of DCPIP. The measurements were carried out in phosphate buffer (0.02 mol/L, pH 7.2) containing sucrose (0.4 mol/L), MgCl2 (0.005 mol/L) and NaCl (0.015 mol/L). The chlorophyll content was 30 mg/L in these experiments and the samples were irradiated (~100 W/m^2 with 10 cm distance) with a halogen lamp (250 W) using a 4 cm water filter to prevent warming of the samples (suspension temperature 22 °C). The studied compounds were dissolved in DMSO due to their limited water solubility. […] The inhibitory efficiency of the studied compounds was expressed by IC50 values, i.e., by molar concentration of the compounds causing 50% decrease in the oxygen evolution rate relative to the untreated control.

In data set [6] the test system is human monocytic leukemia THP-1 cell line. As to conditions: THP-1 cells; assessed in this line formerly; cited from earlier work.
Where [7] appears, read: 264 h, clinical isolate CIT03, 11 days at 37 °C, alamarBlue, MIC = 90% or greater reduction of growth, read-out: MAP MIC/IC90.
[8] abbreviates: clinical isolate CIT03, read-out: MIC.
The mark [9] stands for this setting: clinical isolate CIT03, 11 days at 37 °C, alamarBlue, MIC = 90% or greater reduction of growth.

The solubility is how much of the substance goes into solution per volume. Turning to `COc1cccc(NC(=O)c2cccc3ccccc23)c1` [Compound 2b, N-(3-Methoxyphenyl)naphthalene-1-carboxamide], the solubility in the data set “physchem” was not above 30 µM. The log k in data set [1] was 0.6087. In addition, in data set [2], the “reduction in activity (MTT)” value is listed as “more than 80%”. In data set [3], the “antimycobacterial activity relative to ciprofloxacin” value was “three-fold higher” and the “antimycobacterial activity relative to rifampicin” value is recorded as “two-fold higher”. For the same compound, the MIC in data set [3] (setting [7]) turned out to be 54 µM. Further, the MIC in data set [3] (setting [8]) was determined as 15 µg/mL. The “MAP MIC/IC90” value in data set [3] (setting [9]) amounted to 54 µM. In data set [4], the LD50 is more than 30 µmol/L and the “lethal effect / toxicity on THP-1 cells” value is “did not lead to significant lethal effect; also recorded: insignificant toxicity”.

What is called IC50 is the concentration that inhibits the measured activity by half. As for `O=C(Nc1cccc(F)c1)c1cccc2ccccc12` [Compound 4b, N-(3-Fluorophenyl)naphthalene-1-carboxamide], in the data set “physchem”, the solubility was not above 30 µM. The compound further displayed a log k in data set [1] of 0.7204. For the same compound, the 50% inhibitory concentration (IC50) in data set [5] stood at 131 µM. For the same compound, in data set [3], the “antimycobacterial activity relative to ciprofloxacin” value was “three-fold higher” and the “antimycobacterial activity relative to rifampicin” value is given as “two-fold higher”. The MIC in data set [3] (setting [7]) worked out at 57 µM. In data set [3] (setting [8]), the MIC was found to be 15 µg/mL. Moreover, the “MAP MIC/IC90” value in data set [3] (setting [9]) turned out to be 57 µM. Moreover, in data set [4], the LD50 is more than 30 µmol/L and the “lethal effect / toxicity on THP-1 cells” value is reported as “did not lead to significant lethal effect; also recorded: insignificant toxicity”.

For the compound `Cc1cccc(NC(=O)c2cccc3ccccc23)c1` [Compound 3b, N-(3-Methylphenyl)naphthalene-1-carboxamide], the solubility in “physchem” was not above 30 µM. In addition, the log k in data set [1] is on record as 0.7624. For the same compound, inhibition in data set [5] was half-maximal at 136 µM (IC50). For the same compound, in data set [3], the “antimycobacterial activity relative to ciprofloxacin” value was “three-fold higher” and the “antimycobacterial activity relative to rifampicin” value is listed as “two-fold higher”. For the same compound, the MIC in data set [3] (setting [7]) amounted to 57 µM. Further, in data set [4], the LD50 was more than 30 µmol/L and the “lethal effect / toxicity on THP-1 cells” value is given as “did not lead to significant lethal effect; also recorded: insignificant toxicity”.

Consider `CC[C@@]1(O)C(=O)OCc2c1cc1n(c2=O)Cc2cc3ccccc3nc2-1` [camptothecin], for which the LD50 in data set [6] was 0.16 ± 0.07 µmol/L.

For the compound `COc1ccccc1NC(=O)c1cccc2ccccc12` [Compound 2a, N-(2-Methoxyphenyl)naphthalene-1-carboxamide], in “physchem”, the solubility is not above 30 µM. Further, the log k in data set [1] was 0.8013. Besides, in data set [3], the “antimycobacterial activity relative to ciprofloxacin” value is “three-fold higher” and the “antimycobacterial activity relative to rifampicin” value was “two-fold higher”. The MIC in data set [3] (setting [7]) worked out at 54 µM. Besides, in data set [4], the LD50 was more than 30 µmol/L and the “lethal effect / toxicity on THP-1 cells” value is given as “did not lead to significant lethal effect; also recorded: insignificant toxicity”.
